From patent publication US7528138B2, “Pyrazolo[1,5-a]pyrimidines useful as inhibitors of protein kinases” (Vertex Pharmaceuticals Incorporated, priority 2004, dated 2009)

What was measured:
[1] = biological target: T1, Itk (Homo sapiens, UniProt Q08881); test: ITK Inhibition Assay (Radiometric), radioactive-phosphate incorporation; type: biochemical; settings: enzyme inhibition data (Ki), Table 11; radiometric or UV assay not stated
T1 sequence (Q08881 1-620): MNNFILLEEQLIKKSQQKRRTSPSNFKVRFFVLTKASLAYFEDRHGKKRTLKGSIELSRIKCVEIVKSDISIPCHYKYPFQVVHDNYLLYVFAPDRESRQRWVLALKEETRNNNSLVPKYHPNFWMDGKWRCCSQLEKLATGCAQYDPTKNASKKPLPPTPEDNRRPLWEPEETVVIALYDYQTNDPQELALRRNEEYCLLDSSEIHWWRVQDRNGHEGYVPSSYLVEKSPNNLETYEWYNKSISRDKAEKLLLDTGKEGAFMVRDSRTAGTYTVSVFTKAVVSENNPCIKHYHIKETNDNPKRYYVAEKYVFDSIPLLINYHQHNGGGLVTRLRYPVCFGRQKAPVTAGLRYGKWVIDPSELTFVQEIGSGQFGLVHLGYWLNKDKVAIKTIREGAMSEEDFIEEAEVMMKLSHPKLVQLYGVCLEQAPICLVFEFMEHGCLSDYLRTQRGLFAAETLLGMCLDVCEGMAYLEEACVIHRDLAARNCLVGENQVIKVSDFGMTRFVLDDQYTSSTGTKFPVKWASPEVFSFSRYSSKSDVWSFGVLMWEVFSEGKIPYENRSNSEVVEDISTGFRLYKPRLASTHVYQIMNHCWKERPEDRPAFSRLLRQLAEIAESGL
In short: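 Radiometric 33P incorporation into SAM68 peptide (D332-443) with filter capture and scintillation counting; 10 min pre-incubation then 10 min reaction at 25° C. IC50 format: 30 nM Itk, 15 μM ATP, 2 μM peptide, HEPES pH 7.5. Ki(app) format: 50 nM Itk, 7.5 μM ATP, 3 μM peptide, MOPS pH 7.0.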

[2] = biological target: T2, JAK3 (Homo sapiens, UniProt P52333); test: JAK3 Inhibition Assay, 33P incorporation; type: biochemical; settings: enzyme inhibition data (Ki), Table 11
T2 sequence (P52333 1-1124): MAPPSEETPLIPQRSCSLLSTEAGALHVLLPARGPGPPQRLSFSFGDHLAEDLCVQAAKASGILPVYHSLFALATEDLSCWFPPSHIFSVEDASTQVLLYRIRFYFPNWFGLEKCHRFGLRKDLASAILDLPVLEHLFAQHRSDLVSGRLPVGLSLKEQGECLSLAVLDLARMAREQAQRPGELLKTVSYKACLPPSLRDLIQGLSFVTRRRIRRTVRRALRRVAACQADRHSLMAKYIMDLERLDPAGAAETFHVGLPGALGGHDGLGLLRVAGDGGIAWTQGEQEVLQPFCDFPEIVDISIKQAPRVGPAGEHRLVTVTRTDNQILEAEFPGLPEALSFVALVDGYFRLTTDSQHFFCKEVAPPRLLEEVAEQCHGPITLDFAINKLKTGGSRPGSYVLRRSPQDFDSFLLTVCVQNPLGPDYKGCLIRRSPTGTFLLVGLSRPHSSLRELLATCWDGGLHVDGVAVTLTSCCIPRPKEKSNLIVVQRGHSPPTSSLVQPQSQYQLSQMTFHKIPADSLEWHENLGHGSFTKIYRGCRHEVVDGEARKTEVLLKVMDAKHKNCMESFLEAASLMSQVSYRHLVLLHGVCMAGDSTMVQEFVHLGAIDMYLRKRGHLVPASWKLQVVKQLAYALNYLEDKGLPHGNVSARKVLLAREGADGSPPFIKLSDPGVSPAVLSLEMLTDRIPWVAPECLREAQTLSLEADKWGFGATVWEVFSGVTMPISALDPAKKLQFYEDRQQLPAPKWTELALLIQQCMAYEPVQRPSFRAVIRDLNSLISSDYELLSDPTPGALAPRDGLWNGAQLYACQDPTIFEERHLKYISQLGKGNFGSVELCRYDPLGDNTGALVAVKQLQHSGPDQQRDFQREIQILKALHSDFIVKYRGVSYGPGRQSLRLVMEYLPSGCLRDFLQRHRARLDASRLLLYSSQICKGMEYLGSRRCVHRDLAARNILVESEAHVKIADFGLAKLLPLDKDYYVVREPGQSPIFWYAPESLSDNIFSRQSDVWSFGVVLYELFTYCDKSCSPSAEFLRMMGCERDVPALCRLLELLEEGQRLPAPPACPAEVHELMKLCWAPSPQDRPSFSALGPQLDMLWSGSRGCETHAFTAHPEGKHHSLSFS
In short: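 33P incorporation into 1 μM poly(Glu)4Tyr was counted after TCA stop and glass fiber filtration. The 20 min reaction ran at 25 °C with 1 nM JAK3 and 5 μM ATP (200 uCi/μmole). Buffer was 100 mM HEPES pH 7.4, 10 mM MgCl2, 25 mM NaCl, 1 mM DTT, 0.01% BSA.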

Ki [1] [nM] | Ki [2] [nM] | SMILES
500 to 5000 | > 5000 | COc1ccccc1-c1cnc2c(-c3ccccn3)c(N)nn2c1 [Compound V-14]
< 500 | > 5000 | CS(=O)(=O)Nc1cccc(-c2cnc3c(-c4ccccn4)c(N)nn3c2)c1 [Compound V-18]
500 to 5000 | > 5000 | Cc1ccc(-c2c(N)nn3cc(-c4ccncc4)cnc23)nc1 [Compound V-132]
500 to 5000 | 500 to 5000 | Cc1ccnc(-c2c(N)nn3cc(-c4ccncc4)cnc23)c1 [Compound V-133]
500 to 5000 | > 5000 | Nc1nn2cc(-c3ccncc3)cnc2c1-c1ncccc1OCc1ccccc1 [Compound V-134]
500 to 5000 | > 5000 | Cc1cccnc1-c1c(N)nn2cc(-c3ccncc3)cnc12 [Compound V-135]
500 to 5000 | > 5000 | COCCNc1ccc(-c2cnc3c(-c4ccccn4)c(N)nn3c2)cn1 [Compound V-156]
< 500 | 500 to 5000 | CN(C)CCNc1ccc(-c2cnc3c(-c4ccccn4)c(N)nn3c2)cn1 [Compound V-159]
< 500 | 500 to 5000 | CCN(CC)CCN(C)c1ccc(-c2cnc3c(-c4ccccn4)c(N)nn3c2)cn1 [Compound V-173]
< 500 | > 5000 | Cc1cccc(-c2c(N)nn3cc(-c4ccncc4)cnc23)n1 [Compound V-178]
< 500 | < 500 | Nc1nn2cc(-c3ccncc3)cnc2c1-c1cc(N2CCCCC2)ncn1 [Compound V-179]
< 500 | < 500 | CCN(CC)c1cc(-c2c(N)nn3cc(-c4ccncc4)cnc23)ncn1 [Compound V-180]
< 500 | < 500 | CNc1cc(-c2c(N)nn3cc(-c4ccncc4)cnc23)ncn1 [Compound V-181]
< 500 | < 500 | CC(C)Nc1cc(-c2c(N)nn3cc(-c4ccncc4)cnc23)ncn1 [Compound V-182]
< 500 | 500 to 5000 | Nc1nn2cc(-c3ccncc3)cnc2c1-c1cc(NC2CCCCC2)ncn1 [Compound V-183]
< 500 | 500 to 5000 | Nc1nn2cc(-c3ccncc3)cnc2c1-c1cc(NCC2CCCCC2)ncn1 [Compound V-184]
< 500 | < 500 | CC(C)CNc1cc(-c2c(N)nn3cc(-c4ccncc4)cnc23)ncn1 [Compound V-185]
< 500 | 500 to 5000 | CNCCN(C)C(=O)c1cccc(-c2cnc3c(-c4ccccn4)c(N)nn3c2)c1 [Compound V-189]
< 500 | 500 to 5000 | CNCCCN(C)C(=O)c1cccc(-c2cnc3c(-c4ccccn4)c(N)nn3c2)c1 [Compound V-190]

Further lines, the compound ahead of its results:

SMILES | Ki [1] [nM] | Ki [2] [nM]
Nc1nn2cc(-c3ccc(C(=O)NC4CCCO4)cn3)cnc2c1-c1ccccn1 (stereo not shown) [Compound V-96] | 500 to 5000 | > 5000
CC(C)CN(C)C(=O)c1ccc(-c2cnc3c(-c4ccccn4)c(N)nn3c2)nc1 [Compound V-97] | < 500 | 500 to 5000
CCN(CC)C(=O)c1ccc(-c2cnc3c(-c4ccccn4)c(N)nn3c2)nc1 [Compound V-98] | < 500 | 500 to 5000
CN1CCC(N(C)C(=O)c2cccc(-c3cnc4c(-c5ccccn5)c(N)nn4c3)n2)CC1 [Compound V-101] | 500 to 5000 | > 5000
CCN1CCN(C(=O)c2cccc(-c3cnc4c(-c5ccccn5)c(N)nn4c3)n2)CC1 [Compound V-102] | 500 to 5000 | > 5000
Nc1nn2cc(-c3cccc(C(=O)N4CCC(N)CC4)n3)cnc2c1-c1ccccn1 [Compound V-104] | 500 to 5000 | > 5000
C#CCN(C)C(=O)c1cccc(-c2cnc3c(-c4ccccn4)c(N)nn3c2)n1 [Compound V-106] | 500 to 5000 | > 5000
Nc1nn2cc(-c3cccc(C(=O)N4CCCC4CO)n3)cnc2c1-c1ccccn1 (stereo not shown) [Compound V-112] | 500 to 5000 | > 5000
CN(CCC#N)C(=O)c1cccc(-c2cnc3c(-c4ccccn4)c(N)nn3c2)n1 [Compound V-114] | 500 to 5000 | > 5000
CCN(C)C(=O)c1cccc(-c2cnc3c(-c4ccccn4)c(N)nn3c2)n1 [Compound V-115] | 500 to 5000 | > 5000
CCN(CCC#N)C(=O)c1cccc(-c2cnc3c(-c4ccccn4)c(N)nn3c2)n1 [Compound V-116] | 500 to 5000 | > 5000
CCN(CC)CCN(C)C(=O)c1cccc(-c2cnc3c(-c4ccccn4)c(N)nn3c2)n1 [Compound V-124] | 500 to 5000 | > 5000
CCN(CC)C(=O)c1cccc(-c2cnc3c(-c4ccccn4)c(N)nn3c2)n1 [Compound V-127] | 500 to 5000 | > 5000
COCCCN1CCN(C(=O)c2ccc(-c3cnc4c(-c5ccccn5)c(N)nn4c3)nc2)CC1 [Compound V-129] | < 500 | 500 to 5000
CN(CCCN)C(=O)c1ccc(-c2cnc3c(-c4ccccn4)c(N)nn3c2)nc1 [Compound V-130] | < 500 | > 5000
COC(=O)C1CCCN1C(=O)c1cccc(-c2cnc3c(-c4ccccn4)c(N)nn3c2)n1 (stereo not shown) [Compound V-139] | 500 to 5000 | > 5000
CC(C)N1CCN(c2ccc(-c3cnc4c(-c5ccccn5)c(N)nn4c3)cn2)CC1 [Compound V-146] | < 500 | > 5000
Nc1nn2cc(-c3ccc(N4CCNCC4)nc3)cnc2c1-c1ccccn1 [Compound V-151] | < 500 | > 5000
Nc1nn2cc(-c3ccc(N4CCC[C@H]4CN4CCCC4)nc3)cnc2c1-c1ccccn1 [Compound V-152] | < 500 | > 5000
Nc1nn2cc(-c3cccc(C(=O)N4CCC[C@H]4CN4CCCC4)n3)cnc2c1-c1ccccn1 [Compound V-154] | 500 to 5000 | > 5000
CN(CCCN)C(=O)c1cccc(-c2cnc3c(-c4ccccn4)c(N)nn3c2)n1 [Compound V-155] | < 500 | 500 to 5000
CN1CCCN(c2ccc(-c3cnc4c(-c5ccccn5)c(N)nn4c3)cn2)CC1 [Compound V-160] | 500 to 5000 | > 5000
Nc1nn2cc(-c3ccc(N4CCC(N)CC4)nc3)cnc2c1-c1ccccn1 [Compound V-165] | < 500 | > 5000
CCN1CCN(c2ccc(-c3cnc4c(-c5ccccn5)c(N)nn4c3)cn2)CC1 [Compound V-166] | < 500 | > 5000
Nc1nn2cc(-c3cccc(C(=O)N4CCC[C@@H]4CN4CCCC4)n3)cnc2c1-c1ccccn1 [Compound V-175] | 500 to 5000 | 500 to 5000
Nc1nn2cc(-c3ccc(N4CCC[C@@H]4CN4CCCC4)nc3)cnc2c1-c1ccccn1 [Compound V-176] | < 500 | 500 to 5000
Nc1nn2cc(-c3ccc(C(=O)N4CCC[C@H]4CN4CCCC4)cn3)cnc2c1-c1ccccn1 [Compound V-177] | < 500 | 500 to 5000
CN(C)CCN(C)C(=O)c1ccc(-c2cnc3c(-c4ccccn4)c(N)nn3c2)cc1 [Compound V-188] | < 500 | 500 to 5000
